Each structure is given as a SMILES string. Read-outs that look alike come from different tables or passages of the source.

In this assay the target is T1, human V1b receptors (Homo sapiens, UniProt P47901).
T1 construct: expressed in transfected cells
T1 sequence (P47901 1-424): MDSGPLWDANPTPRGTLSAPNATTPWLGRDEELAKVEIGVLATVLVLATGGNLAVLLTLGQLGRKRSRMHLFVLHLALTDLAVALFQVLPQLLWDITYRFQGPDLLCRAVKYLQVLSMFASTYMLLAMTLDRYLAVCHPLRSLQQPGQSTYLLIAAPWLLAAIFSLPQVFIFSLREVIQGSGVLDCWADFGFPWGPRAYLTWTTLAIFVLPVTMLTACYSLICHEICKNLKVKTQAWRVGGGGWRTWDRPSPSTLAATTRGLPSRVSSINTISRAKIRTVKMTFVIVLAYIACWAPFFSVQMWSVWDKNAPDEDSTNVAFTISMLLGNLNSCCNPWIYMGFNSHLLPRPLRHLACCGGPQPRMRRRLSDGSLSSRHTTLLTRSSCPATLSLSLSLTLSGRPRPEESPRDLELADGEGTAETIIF
The assay can be described thus: Vasopressin V1b receptor binding assay. The method, then: Vasopressin V1b Receptor Binding Assay:
These DMSO solutions were diluted 1:10 with assay buffer. The substance concentration was further diluted 1:10 in the assay mixture.
The nonspecific binding was determined with 10^−6 M AVP. Determinations in triplicate were carried out.
The affinities for the human vasopressin V1b receptor were measured, and affinity constants determined, in the above assay for the inventive examples.
The affinities of the compounds (I) of the invention for the human vasopressin V1b receptor were measured in accordance with the above assays, and the affinity constants (Ki) were determined. Table 1 below details the V1b receptor affinity of selected compounds (+++ means <10 nM and ++ means 10-100 nM).

The mark [1] stands for this setting: Table 1, human vasopressin V1b receptor affinity, read-out: V1b Ki.
The mark [2] stands for this setting: membranes from CHO-K1 cells, 3H-AVP displacement, read-out: measured Ki values, affinities for the vasopressin V1b receptor.

For orientation: Ki means a measure of affinity in units of concentration, obtained from inhibition or displacement. In the case of `CCOc1ccccc1C1(NC(=O)N2CCN(c3ccncc3)CC2)C(=O)N(S(=O)(=O)c2ccccc2)c2ccc(C#N)cc21` (centres unmarked) [Example 11, 4-(Pyridin-4-yl)piperazine-1-[1-benzenesulfonyl-5-cyano-2-oxo-3-(2-ethoxyphenyl)-2,3-dihydro-1H-indol-3-yl]carboxamide], the inhibitory constant (Ki) was 10 to 100 nM under setting [1] and less than 100 nM under setting [2].

For `CCOc1ccccc1C1(NC(=O)N2CCN(c3ccc(C#N)cn3)CC2)C(=O)N(S(=O)(=O)c2ccc(C#N)cc2)c2ccc(C#N)cc21` (centres unmarked) [Example 47, 4-(5-Cyanopyridin-2-yl)piperazine-1-[1-(4-cyanobenzenesulfonyl)-5-cyano-2-oxo-3-(2-ethoxyphenyl)-2,3-dihydro-1H-indol-3-yl]carboxamide], the Ki is 10 to 100 nM under setting [1] and less than 100 nM under setting [2]. The like results for `CCOc1ccccc1C1(NC(=O)N2CCN(c3ccncc3)CC2)C(=O)N(S(=O)(=O)c2ccccc2OC)c2ccc(C#N)cc21` (centres unmarked) [Example 10, 4-(Pyridin-4-yl)piperazine-1-[1-(2-methoxybenzenesulfonyl)-5-cyano-2-oxo-3-(2-ethoxyphenyl)-2,3-dihydro-1H-indol-3-yl]carboxamide] were, in that order, less than 10 nM and less than 100 nM.

Turning to `CCOc1ccccc1C1(NC(=O)N2CCN(c3ccc(C#N)cn3)CC2)C(=O)N(S(=O)(=O)c2ccccc2OC)c2ccc(C#N)cc21` (centres unmarked) [Example 45, 4-(5-Cyanopyridin-2-yl)piperazine-1-[1-(2-methoxybenzenesulfonyl)-5-cyano-2-oxo-3-(2-ethoxyphenyl)-2,3-dihydro-1H-indol-3-yl]carboxamide], the Ki is, setting by setting: under setting [1], 10 to 100 nM; under setting [2], less than 100 nM. Take `CCOc1ccccc1C1(NC(=O)N2CCN(c3ccc(C#N)cn3)CC2)C(=O)N(S(=O)(=O)c2ccc(C#N)cc2)c2ccc(C#N)cc21` (centres unmarked) [Example 50, 4-(5-Cyanopyridin-2-yl)piperazine-1-[1-(4-cyanobenzenesulfonyl)-5-cyano-2-oxo-3-(2-ethoxyphenyl)-2,3-dihydro-1H-indol-3-yl]carboxamide]: the inhibitory constant (Ki) under setting [1] was 10 to 100 nM. In the case of `CCOc1ccccc1C1(NC(=O)N2CCN(c3ccncc3)CC2)C(=O)N(S(=O)(=O)c2ccc(OC)cc2OC)c2ccc(C#N)cc21` (centres unmarked) [Example 16, 4-(Pyridin-4-yl)piperazine-1-[1-(2,4-dimethoxybenzenesulfonyl)-5-cyano-2-oxo-3-(2-ethoxyphenyl)-2,3-dihydro-1H-indol-3-yl]carboxamide], the Ki runs as follows: under setting [1], less than 10 nM; under setting [2], less than 100 nM. For `CCOc1ccccc1C1(OC(=O)N2CCN(c3cc(C#N)ccn3)CC2)C(=O)N(S(=O)(=O)c2ccc(OC)cc2OC)c2ccc(C#N)cc21` (centres unmarked) [Example 26, 1-(2,4-Dimethoxybenzenesulfonyl)-5-cyano-2-oxo-3-(2-ethoxyphenyl)-2,3-dihydro-1H-indol-3-yl 4-(4-cyanopyridin-2-yl)piperazine-1-carboxylate], the inhibition constant (Ki) under setting [1] was less than 10 nM and the Ki under setting [2] is less than 100 nM.

In the case of `CCOc1ccccc1C1(OC(=O)N2CCN(c3ccncc3)CC2)C(=O)N(S(=O)(=O)c2ccc(C#N)cc2)c2ccc(C#N)cc21` (centres unmarked) [Example 18, 1-(4-Cyanobenzenesulfonyl)-5-cyano-2-oxo-3-(2-ethoxyphenyl)-2,3-dihydro-1H-indol-3-yl 4-(pyridin-4-yl)piperazine-1-carboxylate], the Ki is 10 to 100 nM under setting [1] and less than 100 nM under setting [2]. For `CCOc1ccccc1C1(NC(=O)N2CCN(c3ccncc3)CC2)C(=O)N(S(=O)(=O)c2ccc([N+](=O)[O-])cc2)c2ccc(C#N)cc21` (centres unmarked) [Example 17, 4-(Pyridin-4-yl)piperazine-1-[1-(4-nitrobenzenesulfonyl)-5-cyano-2-oxo-3-(2-ethoxyphenyl)-2,3-dihydro-1H-indol-3-yl]carboxamide], in that order: less than 10 nM and less than 100 nM.

Values taken from patent US8129389B2, “Substituted oxindole derivatives, medicaments containing the latter and use thereof” (Abbott GmbH & Co. KG, priority 2005, dated 2012).
